The results in this text go back to patent US20240269139A1, “COMPOUNDS FOR TARGETED PROTEIN DEGRADATION OF KINASES” (DANA-FARBER CANCER INSTITUTE, INC., priority 2020, published 2024).

Like-named read-outs stand apart in the source and are kept apart here.

Assay [1] addresses protein kinases (human kinome) (Homo sapiens, UniProt Q13233). Type of assay: cell-based.
Assay [2] deals with protein kinases (human kinome) (Homo sapiens, UniProt Q8TDR2). It is filed as cell-based.
Sequence of protein kinases (human kinome) (Homo sapiens, UniProt Q8TDR2) (Q8TDR2 whole entry): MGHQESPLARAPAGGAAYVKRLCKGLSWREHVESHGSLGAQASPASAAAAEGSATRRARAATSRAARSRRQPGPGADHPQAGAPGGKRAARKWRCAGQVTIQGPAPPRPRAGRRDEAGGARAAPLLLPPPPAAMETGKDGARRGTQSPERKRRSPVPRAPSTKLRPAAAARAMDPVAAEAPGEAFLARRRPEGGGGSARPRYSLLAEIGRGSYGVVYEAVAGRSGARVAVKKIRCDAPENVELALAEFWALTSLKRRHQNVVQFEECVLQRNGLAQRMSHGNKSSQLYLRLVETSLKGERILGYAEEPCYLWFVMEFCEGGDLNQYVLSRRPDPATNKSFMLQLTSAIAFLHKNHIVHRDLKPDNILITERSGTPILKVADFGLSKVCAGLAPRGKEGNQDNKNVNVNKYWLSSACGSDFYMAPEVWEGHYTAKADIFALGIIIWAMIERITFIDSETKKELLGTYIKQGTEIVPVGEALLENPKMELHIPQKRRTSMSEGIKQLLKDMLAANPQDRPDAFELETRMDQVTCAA

Sequence of protein kinases (human kinome) (Homo sapiens, UniProt Q13233) (Q13233 whole entry): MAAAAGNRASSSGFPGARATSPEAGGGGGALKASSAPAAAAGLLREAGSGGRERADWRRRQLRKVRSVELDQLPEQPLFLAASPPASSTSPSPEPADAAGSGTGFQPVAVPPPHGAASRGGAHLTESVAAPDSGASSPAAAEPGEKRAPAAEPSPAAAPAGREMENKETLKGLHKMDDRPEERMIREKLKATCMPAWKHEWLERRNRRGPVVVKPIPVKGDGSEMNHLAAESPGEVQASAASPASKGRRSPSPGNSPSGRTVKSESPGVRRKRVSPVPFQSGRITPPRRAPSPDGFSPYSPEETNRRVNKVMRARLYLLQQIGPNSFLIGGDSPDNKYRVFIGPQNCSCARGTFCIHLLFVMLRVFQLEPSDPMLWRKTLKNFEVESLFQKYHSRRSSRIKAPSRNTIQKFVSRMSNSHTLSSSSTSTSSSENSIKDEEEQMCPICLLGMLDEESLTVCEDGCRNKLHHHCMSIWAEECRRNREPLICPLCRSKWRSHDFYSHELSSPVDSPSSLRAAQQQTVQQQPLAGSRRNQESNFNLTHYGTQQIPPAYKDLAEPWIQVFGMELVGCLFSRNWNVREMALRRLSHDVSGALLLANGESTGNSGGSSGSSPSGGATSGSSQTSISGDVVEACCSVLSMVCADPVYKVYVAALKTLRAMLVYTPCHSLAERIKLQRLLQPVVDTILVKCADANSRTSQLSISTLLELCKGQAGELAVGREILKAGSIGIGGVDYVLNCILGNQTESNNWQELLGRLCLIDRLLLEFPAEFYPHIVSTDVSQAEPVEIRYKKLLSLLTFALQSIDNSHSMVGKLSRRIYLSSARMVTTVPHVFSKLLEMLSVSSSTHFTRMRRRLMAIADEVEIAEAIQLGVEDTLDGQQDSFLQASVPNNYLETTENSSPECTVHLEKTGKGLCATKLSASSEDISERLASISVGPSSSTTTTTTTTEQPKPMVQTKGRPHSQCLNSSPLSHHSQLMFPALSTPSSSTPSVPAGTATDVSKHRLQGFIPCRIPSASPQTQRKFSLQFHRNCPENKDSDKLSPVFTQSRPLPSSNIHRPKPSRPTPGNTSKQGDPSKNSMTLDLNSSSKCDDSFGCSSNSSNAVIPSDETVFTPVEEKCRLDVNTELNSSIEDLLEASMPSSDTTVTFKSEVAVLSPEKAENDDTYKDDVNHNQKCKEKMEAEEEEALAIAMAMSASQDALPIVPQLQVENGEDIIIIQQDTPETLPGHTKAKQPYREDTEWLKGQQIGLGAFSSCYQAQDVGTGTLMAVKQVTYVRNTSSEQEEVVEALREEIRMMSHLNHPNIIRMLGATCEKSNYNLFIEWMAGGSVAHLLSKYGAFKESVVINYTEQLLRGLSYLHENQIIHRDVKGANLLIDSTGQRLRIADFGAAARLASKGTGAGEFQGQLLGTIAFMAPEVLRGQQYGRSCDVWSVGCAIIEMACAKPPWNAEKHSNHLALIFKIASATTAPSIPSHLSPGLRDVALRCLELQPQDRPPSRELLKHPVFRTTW

For `Nc1ncc(-c2ccc(S(=O)(=O)N(CCCNC(=O)CCOCCOCCOCCOCCOCCNc3cccc4c3C(=O)N(C3CCC(=O)NC3=O)C4=O)C3CC3)cc2)cc1-c1ccc2c(c1)CCNC2=O` (stereo not shown) [WH.10417.099], the “logFC MAP3K1” value in assay [1] (Accession Q13233, experiment wp056, direction down) is −0.5034; in assay [1] (Accession Q13233, experiment wp107, direction down) it was −0.4673; in assay [1] (MAP3K1 (Q13233), experiment wp056) it was −0.5034; in assay [1] (MAP3K1 (Q13233), experiment wp107), −0.4673. The “logFC STK35” value in assay [2] (Accession Q8TDR2, experiment wp056, direction down) is −2.073; in assay [2] (Accession Q8TDR2, experiment wp103, direction down), −1.239; in assay [2] (Accession Q8TDR2, experiment wp107, direction down) it was −1.954; in assay [2] (STK35 (Q8TDR2), experiment wp056), −2.073; in assay [2] (STK35 (Q8TDR2), experiment wp103), −1.239; in assay [2] (STK35 (Q8TDR2), experiment wp107) it was −1.954.
